Data from US12606541B2, “PPARg modulators and methods of use” (Eisai R&D Management Co., Ltd., priority 2020, dated 2026).

Assays:
UM-UC-9 engineered cells = assay: Cell proliferation / short-term viability assay, CellTiter-Glo 144 h; type: cell-based, human; details: Homo sapiens, UM-UC-9, 144 h, read-out: CTGlo 144 h UMUC9.5, G150
Summary of the method: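 Viability read by CellTiter-Glo 2.0 luminescence at day 7 versus DMSO-vehicle wells and a T0 plate measured on day 0. Cells: UM-UC-9 engineered assay-ready stocks, 500 cells/well in high-glucose DMEM with 10% FBS, 37° C, 5% CO2.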

His6-TEV-PPARγ-(234-505) = biological target: T1, His6-TEV-PPARγ-(234-505) (Homo sapiens, UniProt P37231); assay: TR-FRET Assay to Measure Co-R Peptide Recruitment to PPARγ; type: biochemical; details: Co-R peptide (SMRT-ID2) recruitment; top final concentration 20 μM; read-out: TR-FRET i-Ag; AC50
T1 construct: The His6-TEV-PPARγ-(234-505) protein for assay was expressed and purified; TEV cleavage site (N); made in house
T1 sequence (P37231 234-505): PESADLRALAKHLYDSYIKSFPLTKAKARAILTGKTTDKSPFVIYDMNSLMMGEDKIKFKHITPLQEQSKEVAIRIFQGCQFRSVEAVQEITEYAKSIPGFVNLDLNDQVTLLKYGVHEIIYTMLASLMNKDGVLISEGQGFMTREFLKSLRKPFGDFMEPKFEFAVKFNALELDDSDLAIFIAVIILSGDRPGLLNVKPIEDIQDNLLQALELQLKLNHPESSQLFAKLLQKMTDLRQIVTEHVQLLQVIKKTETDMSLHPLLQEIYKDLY
Summary of the method: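 Corepressor recruitment is measured by adding terbium-labeled anti-His antibody and FITC SMRT-ID2 peptide, at 5 and 200 nM final, after a 20-minute room-temperature protein–compound incubation. After one further hour, signal is converted to percent response between DMSO and 500 nM T0070907 wells.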

Row | Structure (SMILES) | IC50 (UM-UC-9 engineered cells) | AC50 (His6-TEV-PPARγ-(234-505))
1 | COc1cc(-c2cc(C(=O)N3CCC(C(=O)NCc4cnc(C)o4)CC3)n[nH]2)c(Cl)cn1 [Example 136, 1-(5-(5-chloro-2-methoxypyridin-4-yl)-1H-pyrazole-3-carbonyl)-N-((2-methyloxazol-5-yl)methyl)piperidine-4-carboxamide] | 6100 nM | 887 nM
2 | COc1cc(-c2cc(C(=O)N3CCC(C(=O)NCc4cccc5ccnn45)CC3)n[nH]2)c(Cl)cn1 [Example 137, 1-(5-(5-chloro-2-methoxypyridin-4-yl)-1H-pyrazole-3-carbonyl)-N-(pyrazolo[1,5-a]pyridin-7-ylmethyl)piperidine-4-carboxamide] | 678 nM | 130 nM
3 | COc1cc(-c2cc(C(=O)N3CCC(C(=O)NCc4ncc(Cl)cn4)CC3)n[nH]2)c(Cl)cn1 [Example 138, 1-(5-(5-chloro-2-methoxypyridin-4-yl)-1H-pyrazole-3-carbonyl)-N-((5-chloropyrimidin-2-yl)methyl)piperidine-4-carboxamide] | 1470 nM | 501 nM
4 | COc1cc(-c2cc(C(=O)N3CCC(C(=O)NCc4ccc(C(F)(F)F)cn4)CC3)n[nH]2)c(Cl)cn1 [Example 139, 1-(5-(5-chloro-2-methoxypyridin-4-yl)-1H-pyrazole-3-carbonyl)-N-((5-(trifluoromethyl)pyridin-2-yl)methyl)piperidine-4-carboxamide] | 1790 nM | 336 nM
5 | COc1cc(-c2cc(C(=O)N3CCC(C(=O)NCc4ncccc4Cl)CC3)n[nH]2)c(Cl)cn1 [Example 140, 1-(5-(5-chloro-2-methoxypyridin-4-yl)-1H-pyrazole-3-carbonyl)-N-((3-chloropyridin-2-yl)methyl)piperidine-4-carboxamide] | 634 nM | 85.4 nM
6 | COc1cc(-c2cc(C(=O)N3CCC(C(=O)NCc4cc(C)n(C)n4)CC3)n[nH]2)c(Cl)cn1 [Example 141, 1-(5-(5-chloro-2-methoxypyridin-4-yl)-1H-pyrazole-3-carbonyl)-N-((1,5-dimethyl-1H-pyrazol-3-yl)methyl)piperidine-4-carboxamide] | 2600 nM | 679 nM
7 | COc1cc(-c2cc(C(=O)N3CCC(C(=O)NC(C)COc4ccc(Cl)cc4)CC3)n[nH]2)c(Cl)cn1 (stereo not shown) [Example 142, 1-(5-(5-chloro-2-methoxypyridin-4-yl)-1H-pyrazole-3-carbonyl)-N-(1-(4-chlorophenoxy)propan-2-yl)piperidine-4-carboxamide] | 3140 nM | 904 nM
8 | COc1cc(-c2cc(C(=O)N3CCC(C(=O)NC4CCCC(F)(F)C4)CC3)n[nH]2)c(Cl)cn1 (stereo not shown) [Example 143, 1-(5-(5-chloro-2-methoxypyridin-4-yl)-1H-pyrazole-3-carbonyl)-N-(3,3-difluorocyclohexyl)piperidine-4-carboxamide] | 3310 nM | 910 nM
9 | COc1cc(-c2cc(C(=O)N3CCC(C(=O)NCc4ncccc4F)CC3)n[nH]2)c(Cl)cn1 [Example 146, 1-(5-(5-chloro-2-methoxypyridin-4-yl)-1H-pyrazole-3-carbonyl)-N-((3-fluoropyridin-2-yl)methyl)piperidine-4-carboxamide] | 1410 nM | 262 nM
10 | COc1cc(-c2cc(C(=O)N3CCC(C(=O)Nc4cccc(C(F)F)c4)CC3)n[nH]2)c(Cl)cn1 [Example 147, 1-(5-(5-chloro-2-methoxypyridin-4-yl)-1H-pyrazole-3-carbonyl)-N-(3-(difluoromethyl)phenyl)piperidine-4-carboxamide] | 955 nM | 268 nM
11 | COc1cc(-c2cc(C(=O)N3CCC(C(=O)NCC4CC(F)(F)C4)CC3)n[nH]2)c(Cl)cn1 [Example 148, 1-(5-(5-chloro-2-methoxypyridin-4-yl)-1H-pyrazole-3-carbonyl)-N-((3,3-difluorocyclobutyl)methyl)piperidine-4-carboxamide] | 3170 nM | 712 nM
12 | COc1cc(-c2cc(C(=O)N3CCC(C(=O)NCC(F)(F)c4ccccc4)CC3)n[nH]2)c(Cl)cn1 [Example 149, 1-(5-(5-chloro-2-methoxypyridin-4-yl)-1H-pyrazole-3-carbonyl)-N-(2,2-difluoro-2-phenylethyl)piperidine-4-carboxamide] | 418 nM | 49.3 nM
13 | COc1cc(-c2cc(C(=O)N3CCC(C(=O)NCc4ccc(OC(F)F)cc4)CC3)n[nH]2)c(Cl)cn1 [Example 151, 1-(5-(5-chloro-2-methoxypyridin-4-yl)-1H-pyrazole-3-carbonyl)-N-(4-(difluoromethoxy)benzyl)piperidine-4-carboxamide] | 539 nM | 48.1 nM
14 | COc1cc(-c2cc(C(=O)N3CCC(C(=O)NCc4ccc5ncoc5c4)CC3)n[nH]2)c(Cl)cn1 [Example 152] | 825 nM | 853 nM
15 | COc1cc(-c2cc(C(=O)N3CCC(C(=O)N[C@H](C)c4cccc(F)c4)CC3)n[nH]2)c(Cl)cn1 [Example 153, (R)-1-(5-(5-chloro-2-methoxypyridin-4-yl)-1H-pyrazole-3-carbonyl)-N-(1-(3-fluorophenyl)ethyl)piperidine-4-carboxamide] | 2090 nM | 621 nM
16 | COc1cc(-c2cc(C(=O)N3CCC(C(=O)NCc4cc(Cl)ccc4F)CC3)n[nH]2)c(Cl)cn1 [Example 154, N-(5-chloro-2-fluorobenzyl)-1-(5-(5-chloro-2-methoxypyridin-4-yl)-1H-pyrazole-3-carbonyl)piperidine-4-carboxamide] | 166 nM | 77.4 nM
17 | COc1cc(-c2cc(C(=O)N3CCC(C(=O)NCc4cccc(F)c4F)CC3)n[nH]2)c(Cl)cn1 [Example 155, 1-(5-(5-chloro-2-methoxypyridin-4-yl)-1H-pyrazole-3-carbonyl)-N-(2,3-difluorobenzyl)piperidine-4-carboxamide] | 122 nM | 103 nM
18 | COc1cc(-c2cc(C(=O)N3CCC(C(=O)NCc4cccc(Cl)c4F)CC3)n[nH]2)c(Cl)cn1 [Example 156, N-(3-chloro-2-fluorobenzyl)-1-(5-(5-chloro-2-methoxypyridin-4-yl)-1H-pyrazole-3-carbonyl)piperidine-4-carboxamide] | 106 nM | 32.1 nM
19 | COc1cc(-c2cc(C(=O)N3CCC(C(=O)NCc4cccc(F)c4)CC3)n[nH]2)c(Cl)cn1 [Example 157, 1-(5-(5-chloro-2-methoxypyridin-4-yl)-1H-pyrazole-3-carbonyl)-N-(3-fluorobenzyl)piperidine-4-carboxamide] | 212 nM | 130 nM
20 | COc1cc(-c2cc(C(=O)N3CCC(C(=O)NCC4CCC=CO4)CC3)n[nH]2)c(Cl)cn1 (stereo not shown) [Example 158, 1-(5-(5-chloro-2-methoxypyridin-4-yl)-1H-pyrazole-3-carbonyl)-N-((3,4-dihydro-2H-pyran-2-yl)methyl)piperidine-4-carboxamide] | 544 nM | 296 nM
21 | COc1cc(-c2cc(C(=O)N3CCC(C(=O)NCc4cccc(Cl)c4)CC3)n[nH]2)c(F)cn1 [Example 159, N-(3-chlorobenzyl)-1-(5-(5-fluoro-2-methoxypyridin-4-yl)-1H-pyrazole-3-carbonyl)piperidine-4-carboxamide] | 62.4 nM | 27.1 nM
22 | COc1cc(-c2cc(C(=O)N3[C@@H]4CC[C@H]3C[C@H](C(=O)NCc3cccc(Cl)c3)C4)n[nH]2)c(F)cn1 [Example 160-A, (1R,3s,5S)—N-(3-chlorobenzyl)-8-(5-(5-fluoro-2-methoxypyridin-4-yl)-1H-pyrazole-3-carbonyl)-8-azabicyclo[3.2.1]octane-3-carboxamide] | 38.2 nM | 11.5 nM
23 | COc1cc(-c2cc(C(=O)N3[C@@H]4CC[C@H]3C[C@@H](C(=O)NCc3cccc(Cl)c3)C4)n[nH]2)c(F)cn1 [Example 160-B, (1R,3r,5S)—N-(3-chlorobenzyl)-8-(5-(5-fluoro-2-methoxypyridin-4-yl)-1H-pyrazole-3-carbonyl)-8-azabicyclo[3.2.1]octane-3-carboxamide] | > 10000 nM | 14200 nM
24 | COc1cc(-c2cc(C(=O)N3CCC(C(=O)N(C)Cc4cccc(Cl)c4)CC3)n[nH]2)c(F)cn1 [Example 161, N-(3-chlorobenzyl)-1-(5-(5-fluoro-2-methoxypyridin-4-yl)-1H-pyrazole-3-carbonyl)-N-methylpiperidine-4-carboxamide] | 1950 nM | 941 nM
25 | COc1cc(-c2cc(C(=O)N3CCC(C(=O)NC4(C(F)(F)F)CCCC4)CC3)n[nH]2)c(Cl)cn1 [Example 162, 1-(5-(5-chloro-2-methoxypyridin-4-yl)-1H-pyrazole-3-carbonyl)-N-(1-(trifluoromethyl)cyclopentyl)piperidine-4-carboxamide] | 908 nM | 588 nM
26 | COc1cc(-c2cc(C(=O)N3CCC(C(=O)NCc4ccc(OC(F)(F)F)cc4)CC3)n[nH]2)c(Cl)cn1 [Example 164, 1-(5-(5-chloro-2-methoxypyridin-4-yl)-1H-pyrazole-3-carbonyl)-N-(4-(trifluoromethoxy)benzyl)piperidine-4-carboxamide] | 1010 nM | 608 nM
